One experiment deals with human GCGR (Homo sapiens, UniProt P47871). The experiment can be described thus: Peptide-receptor mediated cAMP accumulation (LANCE Ultra cAMP) in CHO-K1 cells transfected with human GCGR. The conditions noted are these: Table 3. The experiment is classed as cell-based.
The target of another experiment is human GLP-1R (Homo sapiens, UniProt P43220). The experiment can be described thus: Peptide-receptor mediated cAMP accumulation (LANCE Ultra cAMP) in CHO-K1 cells transfected with human GLP-1R. In kind it is cell-based. The note with it: hGLP1 pEC50 (cAMP mean (n = 3): 11 point curve starting at 1 nM, Table 3).
Sequence of human GLP-1R (P43220 24-463): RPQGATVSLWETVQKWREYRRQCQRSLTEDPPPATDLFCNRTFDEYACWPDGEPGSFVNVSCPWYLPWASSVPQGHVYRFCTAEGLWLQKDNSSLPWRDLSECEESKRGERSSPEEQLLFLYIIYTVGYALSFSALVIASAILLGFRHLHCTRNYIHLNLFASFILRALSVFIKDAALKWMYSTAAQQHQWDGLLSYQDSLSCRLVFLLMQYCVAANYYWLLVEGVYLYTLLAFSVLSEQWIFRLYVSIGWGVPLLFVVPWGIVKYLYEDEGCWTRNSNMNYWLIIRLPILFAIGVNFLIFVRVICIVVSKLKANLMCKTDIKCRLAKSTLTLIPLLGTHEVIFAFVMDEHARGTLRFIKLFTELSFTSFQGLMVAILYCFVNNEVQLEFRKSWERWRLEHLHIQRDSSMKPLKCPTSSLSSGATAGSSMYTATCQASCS

Where a SMILES comes first, the peptide text is derived from it. [ ]: non-standard residue; d: D form. Aib = CC(C)(N)C(=O)O

Sequence of human GCGR (P47871 26-477): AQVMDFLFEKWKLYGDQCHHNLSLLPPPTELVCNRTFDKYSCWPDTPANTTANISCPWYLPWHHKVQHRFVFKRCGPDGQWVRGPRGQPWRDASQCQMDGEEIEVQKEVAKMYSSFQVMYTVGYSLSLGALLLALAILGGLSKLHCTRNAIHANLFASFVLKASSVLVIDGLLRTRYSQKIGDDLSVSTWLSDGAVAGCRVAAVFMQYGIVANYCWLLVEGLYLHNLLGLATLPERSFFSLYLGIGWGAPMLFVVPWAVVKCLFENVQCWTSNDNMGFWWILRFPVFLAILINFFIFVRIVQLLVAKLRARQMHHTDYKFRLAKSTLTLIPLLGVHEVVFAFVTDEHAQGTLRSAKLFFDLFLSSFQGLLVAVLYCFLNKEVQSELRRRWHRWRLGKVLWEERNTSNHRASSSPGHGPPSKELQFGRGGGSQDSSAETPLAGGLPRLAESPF

In the case of `CC(C)C[C@H](NC(=O)[C@H](Cc1ccc(O)cc1)NC(=O)[C@H](CCCCN)NC(=O)[C@H](CO)NC(=O)[C@H](Cc1ccc(O)cc1)NC(=O)[C@H](CC(=O)O)NC(=O)[C@H](CO)NC(=O)[C@@H](NC(=O)[C@H](Cc1ccccc1)NC(=O)[C@@H](NC(=O)CNC(=O)[C@H](Cc1c[nH]cn1)NC(=O)[C@H](CO)NC(=O)[C@@H](N)Cc1ccc(O)cc1)[C@@H](C)O)[C@@H](C)O)C(=O)N[C@@H](CC(=O)O)C(=O)NC(C)(C)C(=O)N[C@@H](CCCCN)C(=O)N[C@@H](CCCNC(=N)N)C(=O)N[C@@H](C)C(=O)N[C@@H](CCC(N)=O)C(=O)N[C@@H](CCC(=O)O)C(=O)N[C@@H](Cc1ccccc1)C(=O)N[C@H](C(=O)NC(C)(C)C(=O)N[C@@H](Cc1c[nH]c2ccccc12)C(=O)N[C@@H](CC(C)C)C(=O)N[C@@H](CCC(=O)O)C(=O)N[C@@H](CC(=O)O)C(=O)N[C@@H](CCC(=O)O)C(=O)N1CCC[C@H]1C(=O)N[C@@H](CO)C(=O)N[C@@H](CO)C(=O)NCC(=O)N[C@@H](CO)C(=O)N1CCC[C@H]1C(=O)N1CCC[C@H]1C(=O)N1CCC[C@H]1C(=O)N[C@@H](CO)C(=O)O)C(C)C` [Compound A22] (H-YSHGTFTSDYSKYLD[Aib]KRAQEFV[Aib]WLEDEPSSGSPPPS-OH; N-terminus assumed), the figures for the EC50 at human GCGR and at human GLP-1R were 10 pM and over 1 nM, respectively.

On to `CC(C)C[C@H](NC(=O)[C@H](Cc1ccc(O)cc1)NC(=O)[C@H](CCCCN)NC(=O)[C@H](CO)NC(=O)[C@H](Cc1ccc(O)cc1)NC(=O)[C@H](CC(=O)O)NC(=O)[C@H](CO)NC(=O)[C@@H](NC(=O)[C@H](Cc1ccccc1)NC(=O)[C@@H](NC(=O)CNC(=O)[C@H](Cc1c[nH]cn1)NC(=O)[C@H](CO)NC(=O)[C@@H](N)Cc1ccc(O)cc1)[C@@H](C)O)[C@@H](C)O)C(=O)N[C@@H](CC(=O)O)C(=O)NC(C)(C)C(=O)N[C@@H](CCCCN)C(=O)N[C@@H](CCCNC(=N)N)C(=O)N[C@@H](C)C(=O)N[C@@H](CCC(N)=O)C(=O)N[C@@H](CCC(=O)O)C(=O)N[C@@H](Cc1ccccc1)C(=O)N[C@H](C(=O)NC(C)(C)C(=O)N[C@@H](Cc1c[nH]c2ccccc12)C(=O)N[C@@H](CC(C)C)C(=O)N[C@@H](CCC(=O)O)C(=O)N[C@@H](CC(=O)O)C(=O)N[C@@H](CCC(=O)O)C(=O)N1CCC[C@H]1C(=O)N[C@@H](CO)C(=O)N[C@@H](CO)C(=O)N[C@@H](CCCCN)C(=O)N[C@@H](C)C(=O)N1CCC[C@H]1C(=O)N1CCC[C@H]1C(=O)N1CCC[C@H]1C(=O)N[C@@H](CO)C(=O)O)C(C)C` [Compound A23] (H-YSHGTFTSDYSKYLD[Aib]KRAQEFV[Aib]WLEDEPSSKAPPPS-OH; N-terminus assumed), for which the EC50 is 6.31 pM at human GCGR and over 1 nM on human GLP-1R.

Turning to `CC(C)C[C@H](NC(=O)[C@H](Cc1ccc(O)cc1)NC(=O)[C@H](CCCCN)NC(=O)[C@H](CO)NC(=O)[C@H](Cc1ccc(O)cc1)NC(=O)[C@H](CC(=O)O)NC(=O)[C@H](CO)NC(=O)[C@@H](NC(=O)[C@H](Cc1ccccc1)NC(=O)[C@@H](NC(=O)CNC(=O)[C@H](Cc1c[nH]cn1)NC(=O)[C@H](CO)NC(=O)[C@@H](N)Cc1ccc(O)cc1)[C@@H](C)O)[C@@H](C)O)C(=O)N[C@@H](CC(=O)O)C(=O)NC(C)(C)C(=O)N[C@@H](CCCCN)C(=O)N[C@@H](CCCNC(=N)N)C(=O)N[C@@H](C)C(=O)N[C@@H](CCC(N)=O)C(=O)N[C@@H](CCC(=O)O)C(=O)N[C@@H](Cc1ccccc1)C(=O)N[C@H](C(=O)NC(C)(C)C(=O)N[C@@H](Cc1c[nH]c2ccccc12)C(=O)N[C@@H](CC(C)C)C(=O)N[C@@H](CCC(=O)O)C(=O)N[C@@H](CC(=O)O)C(=O)N[C@@H](CCC(=O)O)C(=O)N1CCC[C@H]1C(=O)N[C@@H](CO)C(=O)N[C@@H](CO)C(=O)NCC(=O)N[C@@H](C)C(=O)N1CCC[C@H]1C(=O)N1CCC[C@H]1C(=O)N1CCC[C@H]1C(=O)N[C@@H](CO)C(=O)N[C@@H](CO)C(=O)O)C(C)C` [Compound A25] (H-YSHGTFTSDYSKYLD[Aib]KRAQEFV[Aib]WLEDEPSSGAPPPSS-OH; N-terminus assumed), the EC50 was 5.01 pM on human GCGR and over 1 nM on human GLP-1R.

On to `CC(C)C[C@H](NC(=O)[C@H](Cc1ccc(O)cc1)NC(=O)[C@H](CCCCN)NC(=O)[C@H](CO)NC(=O)[C@H](Cc1ccc(O)cc1)NC(=O)[C@H](CC(=O)O)NC(=O)[C@H](CO)NC(=O)[C@@H](NC(=O)[C@H](Cc1ccccc1)NC(=O)[C@@H](NC(=O)CNC(=O)[C@H](Cc1c[nH]cn1)NC(=O)[C@H](CO)NC(=O)[C@@H](N)Cc1ccc(O)cc1)[C@@H](C)O)[C@@H](C)O)C(=O)N[C@@H](CC(=O)O)C(=O)NC(C)(C)C(=O)N[C@@H](CCCCN)C(=O)N[C@@H](CCCNC(=N)N)C(=O)N[C@@H](C)C(=O)N[C@@H](CCC(N)=O)C(=O)N[C@@H](CCC(=O)O)C(=O)N[C@@H](Cc1ccccc1)C(=O)N[C@H](C(=O)NC(C)(C)C(=O)N[C@@H](Cc1c[nH]c2ccccc12)C(=O)N[C@@H](CC(C)C)C(=O)N[C@@H](CCC(=O)O)C(=O)N[C@@H](CC(=O)O)C(=O)N[C@@H](CCC(=O)O)C(=O)N1CCC[C@H]1C(=O)N[C@@H](CO)C(=O)N[C@@H](CO)C(=O)NCC(=O)N[C@@H](C)C(=O)N1CCC[C@H]1C(=O)N1CCC[C@H]1C(=O)N1CCC[C@H]1C(=O)N[C@@H](CO)C(=O)N[C@@H](CCC(=O)O)C(=O)O)C(C)C` [Compound A26] (H-YSHGTFTSDYSKYLD[Aib]KRAQEFV[Aib]WLEDEPSSGAPPPSE-OH; N-terminus assumed), for which the results for the EC50 at human GCGR and at human GLP-1R were 7.94 pM and over 1 nM, respectively.

For the compound `CC(C)C[C@H](NC(=O)[C@H](Cc1ccc(O)cc1)NC(=O)[C@H](CCCCN)NC(=O)[C@H](CO)NC(=O)[C@H](Cc1ccc(O)cc1)NC(=O)[C@H](CC(=O)O)NC(=O)[C@H](CO)NC(=O)[C@@H](NC(=O)[C@H](Cc1ccccc1)NC(=O)[C@@H](NC(=O)CNC(=O)[C@H](Cc1c[nH]cn1)NC(=O)[C@H](CO)NC(=O)[C@@H](N)Cc1ccc(O)cc1)[C@@H](C)O)[C@@H](C)O)C(=O)N[C@@H](CC(=O)O)C(=O)NC(C)(C)C(=O)N[C@@H](CCCCN)C(=O)N[C@@H](CCCNC(=N)N)C(=O)N[C@@H](C)C(=O)N[C@@H](CCC(N)=O)C(=O)N[C@@H](CCC(=O)O)C(=O)N[C@@H](Cc1ccccc1)C(=O)N[C@H](C(=O)NC(C)(C)C(=O)N[C@@H](Cc1c[nH]c2ccccc12)C(=O)N[C@@H](CC(C)C)C(=O)N[C@@H](CCC(=O)O)C(=O)N[C@@H](CC(=O)O)C(=O)N[C@@H](CCC(=O)O)C(=O)N1CCC[C@H]1C(=O)N[C@@H](CCCCN)C(=O)N[C@@H](CO)C(=O)NCC(=O)N[C@@H](C)C(=O)N1CCC[C@H]1C(=O)N1CCC[C@H]1C(=O)N1CCC[C@H]1C(=O)N[C@@H](CO)C(=O)O)C(C)C` [Compound A29] (H-YSHGTFTSDYSKYLD[Aib]KRAQEFV[Aib]WLEDEPKSGAPPPS-OH), the EC50 is 7.94 pM at human GCGR and over 1 nM on human GLP-1R.

In the case of `CC(C)C[C@H](NC(=O)[C@H](Cc1ccc(O)cc1)NC(=O)[C@H](CCCCN)NC(=O)[C@H](CO)NC(=O)[C@H](Cc1ccc(O)cc1)NC(=O)[C@H](CC(=O)O)NC(=O)[C@H](CO)NC(=O)[C@@H](NC(=O)[C@H](Cc1ccccc1)NC(=O)[C@@H](NC(=O)CNC(=O)[C@H](Cc1c[nH]cn1)NC(=O)[C@H](CO)NC(=O)[C@@H](N)Cc1ccc(O)cc1)[C@@H](C)O)[C@@H](C)O)C(=O)N[C@@H](CC(=O)O)C(=O)NC(C)(C)C(=O)N[C@@H](CCCCN)C(=O)N[C@@H](CCCNC(=N)N)C(=O)N[C@@H](C)C(=O)N[C@@H](CCC(N)=O)C(=O)N[C@@H](CCC(=O)O)C(=O)N[C@@H](Cc1ccccc1)C(=O)N[C@H](C(=O)NC(C)(C)C(=O)N[C@@H](Cc1c[nH]c2ccccc12)C(=O)N[C@@H](CC(C)C)C(=O)N[C@@H](CCC(=O)O)C(=O)N[C@@H](CC(=O)O)C(=O)N[C@@H](CCC(=O)O)C(=O)N1CCC[C@H]1C(=O)N[C@@H](CO)C(=O)N[C@@H](CCCCN)C(=O)NCC(=O)N[C@@H](C)C(=O)N1CCC[C@H]1C(=O)N1CCC[C@H]1C(=O)N1CCC[C@H]1C(=O)N[C@@H](CO)C(=O)O)C(C)C` [Compound A30] (H-YSHGTFTSDYSKYLD[Aib]KRAQEFV[Aib]WLEDEPSKGAPPPS-OH; N-terminus assumed), the figures for the EC50 on human GCGR and at human GLP-1R were 12.6 pM and over 1 nM, respectively.

Take `CC(C)C[C@H](NC(=O)[C@H](Cc1ccc(O)cc1)NC(=O)[C@H](CCCCN)NC(=O)[C@H](CO)NC(=O)[C@H](Cc1ccc(O)cc1)NC(=O)[C@H](CC(=O)O)NC(=O)[C@H](CO)NC(=O)[C@@H](NC(=O)[C@H](Cc1ccccc1)NC(=O)[C@@H](NC(=O)CNC(=O)[C@H](Cc1c[nH]cn1)NC(=O)[C@H](CO)NC(=O)[C@@H](N)Cc1ccc(O)cc1)[C@@H](C)O)[C@@H](C)O)C(=O)N[C@@H](CC(=O)O)C(=O)NC(C)(C)C(=O)N[C@@H](CCCCN)C(=O)N[C@@H](CCCNC(=N)N)C(=O)N[C@@H](C)C(=O)N[C@@H](CCC(N)=O)C(=O)N[C@@H](CCC(=O)O)C(=O)N[C@@H](Cc1ccccc1)C(=O)N[C@H](C(=O)NC(C)(C)C(=O)N[C@@H](Cc1c[nH]c2ccccc12)C(=O)N[C@@H](CC(C)C)C(=O)N[C@@H](CCC(=O)O)C(=O)N[C@@H](CC(=O)O)C(=O)N[C@@H](CCC(=O)O)C(=O)N1CCC[C@H]1C(=O)N[C@@H](CCC(=O)O)C(=O)N[C@@H](CO)C(=O)NCC(=O)N[C@@H](C)C(=O)N1CCC[C@H]1C(=O)N1CCC[C@H]1C(=O)N1CCC[C@H]1C(=O)N[C@@H](CO)C(=O)O)C(C)C` [Compound A31] (H-YSHGTFTSDYSKYLD[Aib]KRAQEFV[Aib]WLEDEPESGAPPPS-OH; N-terminus assumed): the EC50 on human GCGR was 2 pM; at human GLP-1R it was over 1 nM.

The values are drawn from patent US20240239861A1, “GLUCAGON-RECEPTOR SELECTIVE POLYPEPTIDES AND METHODS OF USE THEREOF” (i2O Therapeutics, Inc., priority 2016, published 2024).
